In US20170246311A1, “PEPTIDES FOR BINDING ALTERNATIVELY ACTIVATED MACROPHAGES” (University of Washington, priority 2016, published 2017):
Positions of bridges follow the written chain, without caps; N, C: chain ends. Non-standard residues stand in square brackets, D forms with d. Residues, ends and D or L forms follow the SMILES beside them. *: point of attachment. Biotin = O=C1N[C@H]2[C@H](CS[C@H]2CCCCC(=O)*)N1; Hyp = O=C(O)[C@@H]1C[C@@H](O)CN1

Experiments:
[1] = system: M2 macrophages; experiment: Binding study of biotinylated peptides on polarized bone marrow-derived macrophages (streptavidin-FITC, flow cytometry); assay type: cell-based, mouse; settings: biotinylated peptide, on ice 20 min
Procedure: All animal handling protocols were approved by the University of Washington Institutional Animal Care and Use Committee. Bone marrow harvest was performed following the previously reported protocol. Briefly, femur and tibia were excised from 6-8 week-old female c57bl6/027 mice. Cuts were made on the ends of each bone, and RPMI 1640 medium was used to flush out bone marrow cells via 18G needle. The cells were cultured on petri dishes in RPMI 1640 medium supplemented with 20% donor horse serum, 1% antibiotic-antimycotic (AbAm), and 20 ng/mL M-CSF. After 7 d of culture, macrophages were activated by replacing M-CSF with 25 ng/mL IFN-γ and 100 ng/mL LPS for M1 macrophage or 25 ng/mL IL-4 for M2 macrophage. The macrophages were activated for 2 d and then scraped off the petri dishes with cell lifter for binding studies.
Peptide solutions at different concentrations for binding study were prepared by dilutions from the stock solution (10 mg/mL in dH2O) with PBS containing 1% BSA (PBSA). M1 and M2 macrophages (50,000 cells/well) were seeded on a black 96-well plate and incubated in the peptide solutions on ice for 20 min. Unbound peptides were washed off with PBSA twice. The macrophages were subsequently incubated with streptavidin-FITC for 15 min on ice to probe for the bound peptides. Excess streptavidin-FITC was washed off with PBSA twice, and the macrophages were then resuspended in PBS for analysis by MACSQuant Flow Cytometer (Miltenyi Biotec, San Diego, Calif.). Propidium iodide was added to the samples before the data acquisition to discriminate dead cells. Flow cytometry data were analyzed with FlowJo Analysis Software (Tree Star, Ashland, Oreg.). Binding study of peptides post serum incubation was similarly performed with the following additions: The peptides (5 mM stock solution in H2O) were diluted in serum to a final concentration of 0.5 mM and incubated at 37° C. in an incubator. At each time point, an aliquot of the peptides was drawn and diluted in PBS to the final concentration for the binding study. The diluted aliquot was heated at 80° C. for 30 min to inactivate serum proteins, stored in a −20° C. freezer, and thawed for use in the binding study after aliquots at all time points were collected.
All animal handling protocols were approved by the University of Washington Institutional Animal Care and Use Committee. Bone marrow-derived cells were harvested from female c57bl/6 mice as previously described. In brief, femurs and tibias of the mice were excised and flushed with RPMI 1640 medium via an 18G needle. The cells were cultured on petri dishes containing RPMI 1640 medium supplemented with 20% donor horse serum, 1% antibioticantimycotic (AbAm), and 20 ng/mL M-CSF. After 7 d in culture, the medium was replaced with an activation medium whereby M-CSF was replaced with 25 ng/mL IFN-γ and 100 ng/mL LPS for M1 activation or with 25 ng/mL IL-4 for M2 activation. For M1 activation medium, AbAm was replaced with 1% penicillin-streptomycin (Pen-Strep). After 2 d of activation, the activated macrophages were scraped off the petri dishes for binding studies.
Biotinylated peptide stock solutions were prepared in H2O at 10 mg/mL concentration and quantified for the exact concentration using Quant*Tag Biotin quantification kit. The stock solutions were diluted in PBS with 1% BSA (PBSA) to different concentrations for binding studies. Activated macrophages were seeded on a black 96-well plate (50,000 cells/well) and incubated with the peptide solutions for 20 min on ice. The cells were washed twice with PBSA and subsequently incubated with streptavidin-FITC for 15 min on ice. After two additional washes, the cells were resuspended in PBS for analysis via MACSQuant Flow Cytometer (Miltenyi Biotec, San Diego, Calif.). Propidium iodide (PI) was added before running each sample to assess for cell viability. Data analysis was processed on FlowJo Analysis Software (Tree Star, Ashland, Oreg.). […]

[2] = Serum stability study in normal mouse serum, analysis by MALDI-TOF MS; settings: mouse serum
Procedure: The peptide of interest (30 μL of 10 mg/mL stock solution in dH2O) was added to normal mouse serum (300 μL) and incubated at 37° C. in an incubator. At each time point, an aliquot of 40 μL was drawn and an equal volume of ACN was added to the aliquot to precipitate serum proteins. The cloudy mixture was centrifuged at 10,000 rpm for 5 min and then supernatant removed. A solution of 1:1 H2O/ACN (80 μL) was added to the pellet and sonicated for 10 min to further extract the remaining peptides. This resuspended mixture was then centrifuged, and the supernatant was pooled with the former and vacuum-dried on a Speedvac machine. The dried pellet was solubilized in H2O (50 μL) by sonication for 10 min. The mixture was then centrifuged, and the supernatant was drawn and analyzed by MALDI-TOF MS.
To evaluate serum stability of M2pep, the peptide was incubated in mouse serum, and aliquots of the serum at various time points were withdrawn for analysis of degradation patterns by MALDI-TOF MS.
Different M2pep analogs (30 μL from 10 mg/mL stock solution in H2O) were incubated in normal mouse serum (300 μL) at 37° C. in an incubator. An aliquot of the serum (40 μL) was drawn at different time intervals and precipitated with an equal volume of cold ACN. The mixture was centrifuged at 15,000 rpm for 5 min, and the supernatant was collected. A solution of H2O/ACN (1:1 v/v, 80 μL) was added to the pellet with a 10-min sonication to further extract residual peptides. The mixture was then centrifuged. The supernatant was pooled with the former and dried under vacuum on a Speedvac machine. The peptide pellet was resuspended in H2O (50 μL) with a 10-min sonication before analysis by MALDI-ToF MS.

CC(=O)N[C@@H](Cc1ccc(O)cc1)C(=O)N[C@@H](CCC(=O)O)C(=O)N[C@@H](CCC(N)=O)C(=O)N[C@@H](CC(=O)O)C(=O)N1CCC[C@H]1C(=O)N[C@@H](Cc1c[nH]c2ccccc12)C(=O)NCC(=O)N[C@H](C(=O)N[C@@H](CCCCN)C(=O)N[C@H](Cc1c[nH]c2ccccc12)C(=O)N[C@H](Cc1c[nH]c2ccccc12)C(=O)N[C@@H](Cc1ccc(O)cc1)C(=O)NCC(=O)NCC(=O)NCC(=O)N[C@@H](CO)C(=O)N[C@@H](CCCCN)C(=O)N[C@@H](CCCCN)C(=O)N[C@@H](CCCCN)C(=O)N[C@@H](CCCCNC(=O)CCCC[C@@H]1SC[C@@H]2NC(=O)N[C@@H]21)C(N)=O)C(C)C [W(10,11)w, Ac-YEQDPWGVKwwYGGGSKKK]
binding activity to M2 macrophages (in words) [1]: did not restore the binding activity

CC(=O)N[C@@H](Cc1ccc(O)cc1)C(=O)N[C@@H](CCC(=O)O)C(=O)N[C@@H](CCC(N)=O)C(=O)N[C@@H](CC(=O)O)C(=O)N1CCC[C@H]1C(=O)N[C@@H](Cc1c[nH]c2ccccc12)C(=O)NCC(=O)N[C@H](C(=O)N[C@@H](CCCNC(=N)N)C(=O)N[C@@H](Cc1ccc(O)cc1)C(=O)N[C@@H](Cc1c[nH]c2ccccc12)C(=O)N[C@H](Cc1ccc(O)cc1)C(=O)NCC(=O)NCC(=O)NCC(=O)N[C@@H](CO)C(=O)N[C@H](CCCCN)C(=O)N[C@H](CCCCN)C(=O)N[C@H](CCCCN)C(=O)N[C@@H](CCCCNC(=O)CCCC[C@@H]1SC[C@@H]2NC(=O)N[C@@H]21)C(N)=O)C(C)C [Y12y, Ac-YEQDPWGVRYWyGGGSkkk] (Ac-YEQDPWGVRYW[dY]GGGS[dK][dK][dK]K(Biotin)-NH2)
binding activity to M2 macrophages (in words) [1]: reduced binding activity
serum stability at the W10/W11 endolytic cleavage site [2]: did not improve serum stability at the W10/W11 site

CC(=O)N[C@@H](Cc1ccc(O)cc1)C(=O)N[C@@H](CCC(=O)O)C(=O)N[C@@H](CCC(N)=O)C(=O)N[C@@H](CC(=O)O)C(=O)N1CCC[C@H]1C(=O)N[C@@H](Cc1c[nH]c2ccccc12)C(=O)NCC(=O)N[C@H](C(=O)N[C@@H](CCCCN)C(=O)N[C@@H](Cc1ccc(O)cc1)C(=O)N[C@@H](Cc1c[nH]c2ccccc12)C(=O)N[C@@H](Cc1ccc(O)cc1)C(=O)NCC(=O)NCC(=O)NCC(=O)N[C@@H](CO)C(=O)N[C@H](CCCCN)C(=O)N[C@H](CCCCN)C(=O)N[C@H](CCCCN)C(=O)N[C@@H](CCCCNC(=O)CCCC[C@@H]1SC[C@@H]2NC(=O)N[C@@H]21)C(N)=O)C(C)C [W10Y, Ac-YEQDPWGVKYWYGGGSkkk] (Ac-YEQDPWGVKYWYGGGS[dK][dK][dK]K(Biotin)-NH2)
binding activity to M2 macrophages (in words) [1]: significantly increased binding activity
serum stability at the W10/W11 endolytic cleavage site [2]: did not confer protection at the W10/W11 site

CC(=O)N[C@@H](CCCNC(=N)N)C(=O)N[C@@H](Cc1ccc(O)cc1)C(=O)N[C@@H](CCC(=O)O)C(=O)N[C@@H](CCC(N)=O)C(=O)N[C@@H](CC(=O)O)C(=O)N1CCC[C@H]1C(=O)N[C@@H](Cc1c[nH]c2ccccc12)C(=O)NCC(=O)N[C@H](C(=O)N[C@@H](CCCNC(=N)N)C(=O)N[C@@H](Cc1ccc(O)cc1)C(=O)N[C@@H](Cc1c[nH]c2ccccc12)C(=O)N[C@H](Cc1ccc(O)cc1)C(=O)NCC(=O)NCC(=O)NCC(=O)N[C@@H](CO)C(=O)N[C@H](CCCCN)C(=O)N[C@H](CCCCN)C(=O)N[C@H](CCCCN)C(=O)N[C@@H](CCCCNC(=O)CCCC[C@@H]1SC[C@@H]2NC(=O)N[C@@H]21)C(N)=O)C(C)C [R0, Ac-RYEQDPWGVRYWyGGGSkkk] (Ac-RYEQDPWGVRYW[dY]GGGS[dK][dK][dK]K(Biotin)-NH2)
binding activity to M2 macrophages (in words) [1]: did not improve binding activity any further

CC(=O)N[C@@H](Cc1ccc(O)cc1)C(=O)N[C@@H](CCC(=O)O)C(=O)N[C@@H](CCC(N)=O)C(=O)N[C@@H](CC(=O)O)C(=O)N1CCC[C@H]1C(=O)N[C@@H](Cc1c[nH]c2ccccc12)C(=O)NCC(=O)N[C@H](C(=O)N[C@@H](CCCCN)C(=O)N[C@H](Cc1c[nH]c2ccccc12)C(=O)N[C@@H](Cc1c[nH]c2ccccc12)C(=O)N[C@@H](Cc1ccc(O)cc1)C(=O)NCC(=O)NCC(=O)NCC(=O)N[C@@H](CO)C(=O)N[C@@H](CCCCN)C(=O)N[C@@H](CCCCN)C(=O)N[C@@H](CCCCN)C(=O)N[C@@H](CCCCNC(=O)CCCC[C@@H]1SC[C@@H]2NC(=O)N[C@@H]21)C(N)=O)C(C)C [W10w, Ac-YEQDPWGVKwWYGGGSKKK]
binding activity to M2 macrophages (in words) [1]: abrogated binding activity
serum stability at the W10/W11 endolytic cleavage site [2]: effective protection against endolytic cleavage at the W10/W11 site

CC(C)[C@@H]1NC(=O)CNC(=O)[C@H](Cc2c[nH]c3ccccc23)NC(=O)[C@@H]2CCCN2C(=O)[C@H](CC(=O)O)NC(=O)CNC(=O)[C@@H](N)CSSC[C@@H](C(=O)N[C@H](CCCCN)C(=O)N[C@H](CCCCN)C(=O)N[C@H](CCCCN)C(=O)N[C@@H](CCCCNC(=O)CCCC[C@@H]2SC[C@@H]3NC(=O)N[C@@H]32)C(N)=O)NC(=O)CNC(=O)[C@H](Cc2c[nH]c3ccccc23)NC(=O)[C@H](Cc2ccc(O)cc2)NC(=O)[C@H](CCCNC(=N)N)NC1=O [cRYW, CGDPWGVRYWGCkkk] (H-CGDPWGVRYWGC[dK][dK][dK]K(Biotin)-NH2; disulfide 1-12)
binding activity to M2 macrophages (in words) [1]: significantly lower binding activity compared to cyclic M2pep(RY)Biotin

Cc1cn(C)nn1 [Triazole-cyclized M2pep(RY)Biotin]
binding activity to M2 macrophages (in words) [1]: bind less strongly

Biotin-Ahx-GRGRGRG(C-DFBP)G [reference compound]
binding activity to M2 macrophages (in words) [1]: binds very weakly to macrophages even at 100 μM

CC(C)[C@@H]1NC(=O)CNC(=O)[C@H](Cc2c[nH]c3ccccc23)NC(=O)[C@@H]2CCCN2C(=O)[C@H](CC(=O)O)NC(=O)CNC(=O)[C@@H](N)CSSC[C@@H](C(=O)N[C@H](CCCCN)C(=O)N[C@H](CCCCN)C(=O)N[C@H](CCCCN)C(=O)N[C@@H](CCCCNC(=O)CCCC[C@@H]2SC[C@@H]3NC(=O)N[C@@H]32)C(N)=O)NC(=O)CNC(=O)[C@H](Cc2ccc(O)cc2)NC(=O)[C@H](Cc2c[nH]c3ccccc23)NC(=O)[C@H](Cc2ccc(O)cc2)NC(=O)[C@H](CCCNC(=N)N)NC1=O [cRYWY, CGDPWGVRYWYGCkkk] (H-CGDPWGVRYWYGC[dK][dK][dK]K(Biotin)-NH2; disulfide 1-13)
binding activity to M2 macrophages (in words) [1]: significantly lower binding activity compared to cyclic M2pep(RY)Biotin

CC(=O)N[C@@H](Cc1ccc(O)cc1)C(=O)N[C@@H](CCC(=O)O)C(=O)N[C@@H](CCC(N)=O)C(=O)N[C@@H](CC(=O)O)C(=O)N1C[C@H](O)C[C@H]1C(=O)N[C@@H](Cc1c[nH]c2ccccc12)C(=O)NCC(=O)N[C@H](C(=O)N[C@@H](CCCNC(=N)N)C(=O)N[C@@H](Cc1ccc(O)cc1)C(=O)N[C@@H](Cc1c[nH]c2ccccc12)C(=O)N[C@H](Cc1ccc(O)cc1)C(=O)NCC(=O)NCC(=O)NCC(=O)N[C@@H](CO)C(=O)N[C@H](CCCCN)C(=O)N[C@H](CCCCN)C(=O)N[C@H](CCCCN)C(=O)N[C@@H](CCCCNC(=O)CCCC[C@@H]1SC[C@@H]2NC(=O)N[C@@H]21)C(N)=O)C(C)C [P5Hyp, Ac-YEQD(Hyp)WGVRYWyGGGSkkk] (Ac-YEQD[Hyp]WGVRYW[dY]GGGS[dK][dK][dK]K(Biotin)-NH2)
binding activity to M2 macrophages (in words) [1]: significantly ablated the binding activity

Fc1c(F)c(F)c(-c2c(F)c(F)c(F)c(F)c2F)c(F)c1F [DFBP, decafluorobiphenyl, reference compound]
binding activity to M2 macrophages (in words) [1]: negligible binding to M2 macrophages
